Measured values: ChEMBL document CHEMBL3616377, “2-(3'-Indolyl)-N-arylthiazole-4-carboxamides: Synthesis and evaluation of antibacterial and anticancer activities” (Bioorg Med Chem Lett, 2015)
In brackets after ≈: the same amount, converted by molar mass. Activity calls are given as the source filed them. The calls are words filed in the database; no cut-off is given here.

How the values were obtained:
Staphylococcus aureus [1] = test: Antibacterial activity against methicillin-resistant Staphylococcus aureus; format: functional
HeLa [2] = test: Cytotoxicity against human HeLa cells after 48 hrs by MTT assay in absence of 10% FBS; format: functional, cell-based
PC-3 [3] = test: Cytotoxicity against human PC3 cells after 48 hrs by MTT assay in absence of 10% FBS; format: functional, cell-based; details: PC-3, 48 h
MDA-MB-231 [4] = test: Cytotoxicity against human MDA-MB-231 cells after 48 hrs by MTT assay in absence of 10% FBS; format: functional, cell-based; details: MDA-MB-231, 48 h
LNCaP [5] = test: Cytotoxicity against human LNCAP cells after 48 hrs by MTT assay in absence of 10% FBS; format: functional, cell-based
Staphylococcus aureus [6] = test: Antibacterial activity against Staphylococcus aureus MTCC 96 after 18 to 24 hrs by broth microdilution method; format: functional
Staphylococcus aureus [7] = test: Antibacterial activity against Staphylococcus aureus MTCC 96 after 18 to 24 hrs by agar well diffusion method; format: functional
Bacillus subtilis [8] = test: Antibacterial activity against Bacillus subtilis MTCC 121 after 18 to 24 hrs by agar well diffusion method; format: functional
Bacillus subtilis [9] = test: Antibacterial activity against Bacillus subtilis MTCC 121 after 18 to 24 hrs by broth microdilution method; format: functional
Escherichia coli [10] = test: Antibacterial activity against Escherichia coli MTCC 1652 after 18 to 24 hrs by agar well diffusion method; format: functional
Escherichia coli [11] = test: Antibacterial activity against Escherichia coli MTCC 1652 after 18 to 24 hrs by broth microdilution method; format: functional
Pseudomonas putida [12] = test: Antibacterial activity against Pseudomonas putida MTCC 102 after 18 to 24 hrs by agar well diffusion method; format: functional
Pseudomonas putida [13] = test: Antibacterial activity against Pseudomonas putida MTCC 102 after 18 to 24 hrs by broth microdilution method; format: functional
Escherichia coli [14] = test: Bactericidal activity against Escherichia coli MTCC 1652 assessed as reduction of number of bacterial cells at 4 times MIC after 1 to 6 hrs; format: functional, organism-based
Pseudomonas putida [15] = test: Bactericidal activity against Pseudomonas putida MTCC 102 assessed as reduction of number of bacterial cells at 4 times MIC after 1 to 6 hrs; format: functional, organism-based
Escherichia coli [16] = test: Bactericidal activity against Escherichia coli MTCC 1652 assessed as reduction of number of bacterial cells at 4 times MIC after 2 to 3 hrs; format: functional, organism-based
Pseudomonas putida [17] = test: Bactericidal activity against Pseudomonas putida MTCC 102 assessed as reduction of number of bacterial cells at 4 times MIC after 2 to 3 hrs; format: functional, organism-based
HEK-293T [18] = test: Cytotoxicity against human HEK293T cells after 48 hrs by MTT assay in presence of 10% FBS; format: cell-based
[19] = Cytotoxicity against human castration-resistant C4-2 cells after 48 hrs by MTT assay in presence of 10% FBS; format: functional, cell-based; details: LNCaP C4-2, 48 h
HeLa [20] = test: Cytotoxicity against human HeLa cells after 48 hrs by MTT assay in presence of 10% FBS; format: functional, cell-based
PC-3 [21] = test: Cytotoxicity against human PC3 cells after 48 hrs by MTT assay in presence of 10% FBS; format: functional, cell-based; details: PC-3, 48 h
MDA-MB-231 [22] = test: Cytotoxicity against human MDA-MB-231 cells after 48 hrs by MTT assay in presence of 10% FBS; format: functional, cell-based; details: MDA-MB-231, 48 h
LNCaP [23] = test: Cytotoxicity against human LNCAP cells after 48 hrs by MTT assay in presence of 10% FBS; format: functional, cell-based
HeLa [24] = test: Induction of apoptosis in human HeLa cells assessed as formation of apoptotic nuclei formation at 10 uM after 24 hrs using propidium iodide staining by fluorescence microscopy analysis; format: functional, cell-based
HEK-293T [25] = test: Cytotoxicity against human HEK293T cells after 48 hrs by MTT assay in absence of 10% FBS; format: cell-based
[26] = Cytotoxicity against human castration-resistant C4-2 cells after 48 hrs by MTT assay in absence of 10% FBS; format: functional, cell-based; details: LNCaP C4-2, 48 h
SK-N-MC = test: Cytotoxicity against human SK-N-MC cells by MTT assay; format: functional, cell-based
HepG2 = test: Cytotoxicity against human HepG2 cells by MTT assay; format: functional, cell-based
MCF7 = test: Cytotoxicity against human MCF7 cells by MTT assay; format: functional, cell-based

Question: Which MIC (Staphylococcus aureus [1]) does the source give for Clc1ccc2ccc(-c3c[nH]c4ccc(Br)cc34)nc2c1 here?
Answer: Its MIC is less than 1 µg/mL.

Question: Which IC50 (HeLa [2]) does the source give for COc1ccc2[nH]cc(-c3nc(C(=O)Nc4cc(OC)c(OC)c(OC)c4)cs3)c2c1 here?
Answer: Its IC50 is 29.6 µM.

Question: What about the IC50 (PC-3 [3]) of the same compound?
Answer: The IC50 was 94.3 µM.

Question: What about the IC50 (MDA-MB-231 [4]) of the same compound?
Answer: Its IC50 is greater than 100 µM.

Question: And the IC50 (LNCaP [5])?
Answer: The IC50 was greater than 100 µM.

Question: What about the MIC (Staphylococcus aureus [6]) of the same compound?
Answer: Its MIC is 100 µg/mL (≈ 228 µM).

Question: What about the “inhibition zone (IZ)” value (Staphylococcus aureus [7]) of the same compound?
Answer: Its value is 13 mm.

Question: And the “inhibition zone (IZ)” value (Bacillus subtilis [8])?
Answer: Its value is 14 mm.

Question: What about the MIC (Bacillus subtilis [9]) of the same compound?
Answer: The MIC was 50 µg/mL (≈ 114 µM).

Question: And the “inhibition zone (IZ)” value (Escherichia coli [10])?
Answer: The value was 18 mm.

Question: And the MIC (Escherichia coli [11])?
Answer: Its MIC is 12.5 µg/mL (≈ 28.4 µM).

Question: What about the “inhibition zone (IZ)” value (Pseudomonas putida [12]) of the same compound?
Answer: The value was 18 mm.

Question: What about the MIC (Pseudomonas putida [13]) of the same compound?
Answer: The MIC was 12.5 µg/mL (≈ 28.4 µM).

Question: And the Activity (Escherichia coli [14])?
Answer: The Activity was “Active”.

Question: What about the Activity (Pseudomonas putida [15]) of the same compound?
Answer: Its Activity is “Active”.

Question: And the Activity (Escherichia coli [16])?
Answer: The Activity was “Active”.

Question: And the Activity (Pseudomonas putida [17])?
Answer: Its Activity is “Active”.

Question: What about the IC50 (HEK-293T [18]) of the same compound?
Answer: Its IC50 is 8.74 µM.

Question: And the IC50 [19]?
Answer: Its IC50 is greater than 100 µM.

Question: And the IC50 (HeLa [20])?
Answer: The IC50 was 9.98 µM.

Question: And the IC50 (PC-3 [21])?
Answer: The IC50 was greater than 100 µM.

Question: And the IC50 (MDA-MB-231 [22])?
Answer: Its IC50 is greater than 100 µM.

Question: What about the IC50 (LNCaP [23]) of the same compound?
Answer: Its IC50 is 84.8 µM.

Question: And the Activity (HeLa [24])?
Answer: The Activity was “Active”.

Question: What about the IC50 (HEK-293T [25]) of the same compound?
Answer: Its IC50 is 8.6 µM.

Question: What about the IC50 [26] of the same compound?
Answer: The IC50 was greater than 100 µM.

Question: Which IC50 (SK-N-MC) does the source give for Cc1ccc(-c2nc(C(=O)Nc3ccccc3)cs2)cc1 here?
Answer: Its IC50 is 10 µM.

Question: And the IC50 (HepG2)?
Answer: Its IC50 is 10 µM.

Question: And the IC50 (MCF7)?
Answer: The IC50 was 10 µM.
